Here are results for ten compounds from US20260109690A1, “HDAC6 INHIBITORS AND METHOD OF THEIR USE” (Baerenkraft Therapeutics, LLC., priority 2024, published 2026).

In one assay the target is T1, HDAC10 (Homo sapiens, UniProt Q969S8).
T1 sequence (Q969S8 1-669): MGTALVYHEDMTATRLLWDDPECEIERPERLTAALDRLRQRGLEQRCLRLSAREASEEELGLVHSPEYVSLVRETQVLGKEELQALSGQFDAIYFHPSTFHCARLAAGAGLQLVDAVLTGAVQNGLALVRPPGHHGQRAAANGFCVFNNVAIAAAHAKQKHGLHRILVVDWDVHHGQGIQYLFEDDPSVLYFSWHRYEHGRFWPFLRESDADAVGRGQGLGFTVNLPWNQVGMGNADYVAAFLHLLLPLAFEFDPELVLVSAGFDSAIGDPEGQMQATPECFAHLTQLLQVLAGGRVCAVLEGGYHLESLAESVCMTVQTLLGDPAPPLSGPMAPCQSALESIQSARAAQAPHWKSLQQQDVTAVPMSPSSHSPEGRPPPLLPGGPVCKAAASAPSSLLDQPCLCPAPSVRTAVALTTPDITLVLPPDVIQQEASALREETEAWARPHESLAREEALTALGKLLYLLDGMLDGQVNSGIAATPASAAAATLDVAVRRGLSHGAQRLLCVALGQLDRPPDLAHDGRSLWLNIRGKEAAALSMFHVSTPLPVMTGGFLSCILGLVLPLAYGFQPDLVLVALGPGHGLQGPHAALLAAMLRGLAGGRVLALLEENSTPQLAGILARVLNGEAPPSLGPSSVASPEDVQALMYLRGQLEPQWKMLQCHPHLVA
The assay is described as follows: HDAC selectivity panel: HDAC10. The class given is biochemical.

The test system of assay [1] is acetyl-α-tubulin in SH-SY5Y neuroblastoma cells. Kind of assay: ICC dose response of acetylated alpha-tubulin in SH-SY5Y neuroblastoma cells. It is filed as cell-based. The conditions noted are these: Homo sapiens, 24 h, read-out: IC50 (acetyl-α-tubulin average fluorescence intensity). The method, then:
Cell Seeding: Seeded at 2,000 cells/well in 384-well plates 24-hours prior to compound treatment
Compound Treatment: 24-hour
HDAC6 inhibitor compounds tested (1 control and 6 experimental)
9-point dose-response curves for all compounds, starting at 30 μM with 3-fold serial dilutions
4 technical replicate wells per condition tested
Cells were seeded in 90 μL media. 10 μL of 10× compound solutions added to 90 μL media for 24-hours
Fixation: 4% PFA for 15 minutes (after removing all media and washing with DPBS+0.1% Tween-20)
Permeabilization: 0.1% Triton X-100 for 20 minutes
Primary antibody: acetyl-α-tubulin (Lys40/D20G3; Cell Signaling Technologies, #5335S) 1:1000 dilution in DPBS+5% goat serum+0.1% Tween-20, 1 hour at room temp on orbital shaker
Secondary antibody: Goat anti-Rabbit IgG (H+L) Highly Cross-Adsorbed Secondary Antibody, Alexa Fluor™ Plus 488, Catalog #A32731, 1:1000 dilution+Hoechst 33342, 1:10,000 dilution in DPBS+5% goat serum+0.1% Tween-20, 1 hour at room temp on orbital shaker
High-content imaging system: Image Xpress Micro Confocal from Molecular Devices […]
Integrated fluorescence intensity of acetyl-α-tubulin was calculated using an automated image-analysis algorithm in Meta Xpress software
Average intensity per cell was calculated by dividing the integrated fluorescence intensity by the number of nuclei. […]

A further assay addresses T2, HDAC11 (Homo sapiens, UniProt Q96DB2).
T2 sequence (Q96DB2 1-347): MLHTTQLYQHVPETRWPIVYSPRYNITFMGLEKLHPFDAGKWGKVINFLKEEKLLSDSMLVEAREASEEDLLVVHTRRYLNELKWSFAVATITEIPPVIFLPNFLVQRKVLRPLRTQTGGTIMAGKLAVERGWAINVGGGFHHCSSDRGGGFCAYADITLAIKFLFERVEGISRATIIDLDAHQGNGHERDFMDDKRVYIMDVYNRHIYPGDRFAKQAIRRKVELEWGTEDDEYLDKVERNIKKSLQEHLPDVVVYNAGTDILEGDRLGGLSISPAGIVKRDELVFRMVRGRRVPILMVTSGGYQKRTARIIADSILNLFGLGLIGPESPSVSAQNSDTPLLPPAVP
Kind of assay: HDAC selectivity panel: HDAC11. It is filed as biochemical.

For a further assay, the target named is HDAC1 (Homo sapiens, UniProt Q13547). Kind of assay: HDAC selectivity panel: HDAC1. It is filed as biochemical.
In another assay the target is T3, HDAC8 (Homo sapiens, UniProt Q9BY41).
T3 sequence (Q9BY41 1-377): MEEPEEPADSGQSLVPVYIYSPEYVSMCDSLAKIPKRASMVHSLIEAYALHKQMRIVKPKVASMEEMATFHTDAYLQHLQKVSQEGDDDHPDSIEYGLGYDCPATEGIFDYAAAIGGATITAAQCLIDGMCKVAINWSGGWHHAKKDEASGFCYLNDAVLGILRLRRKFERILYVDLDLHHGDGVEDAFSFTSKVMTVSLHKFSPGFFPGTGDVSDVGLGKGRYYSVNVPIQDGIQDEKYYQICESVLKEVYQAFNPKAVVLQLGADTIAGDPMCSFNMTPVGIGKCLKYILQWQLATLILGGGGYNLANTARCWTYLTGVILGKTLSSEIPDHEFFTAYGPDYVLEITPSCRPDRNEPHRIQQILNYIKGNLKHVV
The assay is described as follows: HDAC selectivity panel: HDAC8. The class given is biochemical.

In the next assay the target is T4, HDAC6 (Homo sapiens, UniProt Q9UBN7).
T4 sequence (Q9UBN7 1-1215): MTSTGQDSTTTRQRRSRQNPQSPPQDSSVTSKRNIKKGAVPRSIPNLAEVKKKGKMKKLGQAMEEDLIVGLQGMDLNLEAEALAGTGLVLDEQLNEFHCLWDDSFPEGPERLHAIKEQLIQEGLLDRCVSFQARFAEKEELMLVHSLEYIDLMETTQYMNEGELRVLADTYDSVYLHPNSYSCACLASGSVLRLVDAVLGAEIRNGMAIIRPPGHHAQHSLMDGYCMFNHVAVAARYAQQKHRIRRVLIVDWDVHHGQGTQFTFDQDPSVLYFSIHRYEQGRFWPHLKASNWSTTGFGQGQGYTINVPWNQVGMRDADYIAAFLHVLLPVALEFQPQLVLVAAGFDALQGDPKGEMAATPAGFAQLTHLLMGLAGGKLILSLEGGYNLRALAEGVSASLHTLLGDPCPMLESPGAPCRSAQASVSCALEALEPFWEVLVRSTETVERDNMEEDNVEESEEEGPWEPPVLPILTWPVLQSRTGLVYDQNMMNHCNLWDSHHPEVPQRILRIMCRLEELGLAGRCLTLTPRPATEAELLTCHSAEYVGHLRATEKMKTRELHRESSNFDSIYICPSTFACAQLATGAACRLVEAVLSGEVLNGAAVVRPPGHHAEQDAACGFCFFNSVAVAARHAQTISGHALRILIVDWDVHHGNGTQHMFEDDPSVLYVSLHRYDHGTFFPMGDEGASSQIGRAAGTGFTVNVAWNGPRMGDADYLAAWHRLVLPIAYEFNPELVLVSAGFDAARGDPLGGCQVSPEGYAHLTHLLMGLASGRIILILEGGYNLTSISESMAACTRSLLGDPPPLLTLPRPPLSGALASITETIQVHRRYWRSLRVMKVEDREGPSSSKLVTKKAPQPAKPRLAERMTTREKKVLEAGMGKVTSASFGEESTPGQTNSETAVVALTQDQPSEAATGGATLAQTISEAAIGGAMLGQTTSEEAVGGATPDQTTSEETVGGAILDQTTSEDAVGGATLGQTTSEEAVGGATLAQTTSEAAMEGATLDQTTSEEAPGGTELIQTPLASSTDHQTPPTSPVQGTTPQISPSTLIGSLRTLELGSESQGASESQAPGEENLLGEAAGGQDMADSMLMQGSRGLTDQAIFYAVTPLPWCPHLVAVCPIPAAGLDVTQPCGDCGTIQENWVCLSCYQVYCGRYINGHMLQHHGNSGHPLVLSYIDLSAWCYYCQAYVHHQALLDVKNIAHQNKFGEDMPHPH
Kind of assay: Biochemical HDAC6 inhibitory activity assay. Conditions: read-out: HDAC6 IC50.

In a further assay the target is HDAC3 (Homo sapiens, UniProt O15379). Kind of assay: HDAC selectivity panel: HDAC3. It is filed as biochemical.
For assay [2], the system named is acetyl-α-tubulin in SH-SY5Y neuroblastoma cells. The assay is described as follows: Western blot of acetylated alpha-tubulin in SH-SY5Y neuroblastoma cells. Conditions: 1 μM and 10 μM, 24 hours. It is filed as cell-based. On the procedure: SH-SY5Y neuroblastoma cells were seeded at 1,000,000 cells/well of three 6-well plates and incubated for 24 hours. Cells were treated with 2 control and experimental HDAC6 inhibitors at 1 μM and 10 μM for 24-hours. Following treatment, cells were lysed, and proteins extracted for western blot. Proteins were separated by gel electrophoresis and transferred to nitrocellulose membranes. Membranes were blocked and probed with primary Abs overnight.
acetyl-α-tubulin (Lys40)(D20G3); Cell Signaling Technologies, #5335S
GAPDH; Millipore Sigma, #MAB374
Membranes were probed with secondary Abs for 1 hour and then the blots were imaged using the iBright 1500 (ThermoFisher)
Background: In western blotting, separated proteins are transferred to a membrane and probed.

The structures appear in SMILES notation. pIC50: −log10 of the molar value.

HDAC3, sequence (O15379 whole entry, species assumed): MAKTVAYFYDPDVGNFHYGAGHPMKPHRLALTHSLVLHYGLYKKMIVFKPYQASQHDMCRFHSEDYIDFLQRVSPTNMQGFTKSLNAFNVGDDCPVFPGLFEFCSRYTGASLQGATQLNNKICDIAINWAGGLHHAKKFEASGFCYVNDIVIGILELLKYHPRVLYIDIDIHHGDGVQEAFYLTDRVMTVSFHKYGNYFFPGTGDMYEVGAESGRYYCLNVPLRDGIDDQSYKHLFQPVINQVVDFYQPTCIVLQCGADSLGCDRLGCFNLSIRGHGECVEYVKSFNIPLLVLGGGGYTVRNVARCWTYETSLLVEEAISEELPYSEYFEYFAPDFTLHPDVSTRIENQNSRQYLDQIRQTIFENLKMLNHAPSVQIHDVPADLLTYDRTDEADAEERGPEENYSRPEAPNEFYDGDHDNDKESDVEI
HDAC3, sequence (Q9Y618 395-489 partner limits assumed, species assumed): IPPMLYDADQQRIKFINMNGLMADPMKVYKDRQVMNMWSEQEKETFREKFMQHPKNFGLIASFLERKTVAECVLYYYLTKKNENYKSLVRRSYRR
HDAC1, sequence (Q13547 whole entry, species assumed): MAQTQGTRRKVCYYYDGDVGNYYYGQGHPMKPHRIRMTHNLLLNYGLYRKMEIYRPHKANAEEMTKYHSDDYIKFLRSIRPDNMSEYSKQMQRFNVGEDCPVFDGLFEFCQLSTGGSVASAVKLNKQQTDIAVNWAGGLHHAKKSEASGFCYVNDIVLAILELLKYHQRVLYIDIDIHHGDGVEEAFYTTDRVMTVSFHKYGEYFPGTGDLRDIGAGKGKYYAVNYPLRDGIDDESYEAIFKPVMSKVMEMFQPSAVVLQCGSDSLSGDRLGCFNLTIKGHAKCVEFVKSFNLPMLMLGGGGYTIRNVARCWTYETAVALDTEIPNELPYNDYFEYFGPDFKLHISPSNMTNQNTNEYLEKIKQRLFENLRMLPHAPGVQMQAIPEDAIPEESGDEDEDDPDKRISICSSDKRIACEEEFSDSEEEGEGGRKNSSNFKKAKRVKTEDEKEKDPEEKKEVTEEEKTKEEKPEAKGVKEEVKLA

As for `Cn1cc(CNCC2CCN(c3ncc(C(=O)NO)cn3)CC2)c2ccccc21` [Quisinostat, reference compound], the pIC50 (in general, the IC50 on a negative log10 scale, so that one unit is a factor of ten) at HDAC10 is 8.08.

As to `O=C(CCCCCCNC(=O)c1cnc(N(c2ccccc2)c2ccccc2)nc1)NO` [ACY-1215, ricolinostat, reference compound], the pIC50 in assay [1] was 5.75.

Take `CC1CN(C(=O)c2ccc(Nc3nccc(-c4ccc(C(=O)NO)cc4)n3)cc2F)CCO1` (centres unmarked) [Compound I-5, 4-(2-((3-fluoro-4-(2-methylmorpholine-4-carbonyl)phenyl)amino)pyrimidin-4-yl)-N-hydroxybenzamide]: the pIC50 at HDAC10 is 7.13; on HDAC11 it was 6.11; against HDAC1 it was 5.79; on HDAC8 it was 6.79; on HDAC6, over 6.00; at HDAC3, 5.87.

Turning to `O=C(NO)c1ccc(-c2ccnc(Nc3ccc(CN4CCN(C5COC5)CC4)c(F)c3)n2)cc1` [Compound I-9, 4-(2-((3-fluoro-4-((4-(oxetan-3-yl)piperazin-1-yl)methyl)phenyl)amino)pyrimidin-4-yl)-N-hydroxybenzamide], the negative-log IC50 (pIC50) at HDAC6 was over 6.00. In assay [2], the “acetylation of α-tubulin (Western blot)” value is on record as “induce acetylation of α-tubulin in SH-SY5Y neuroblastoma cells in a dose-dependent manner”.

Take `CN1CCN(Cc2ccc(Nc3nccc(-c4ccc(C(=O)NO)cc4)n3)cc2F)CC1` [Compound I-7, 4-(2-((3-fluoro-4-((4-methylpiperazin-1-yl)methyl)phenyl)amino)pyrimidin-4-yl)-N-hydroxybenzamide]: the pIC50 at HDAC6 is over 6.00. In assay [2], the “acetylation of α-tubulin (Western blot)” value is given as “induce acetylation of α-tubulin in SH-SY5Y neuroblastoma cells in a dose-dependent manner”.

`O=C(NO)c1ccc(-c2ccnc(N3CCC(F)(F)CC3)n2)cc1` [Compound I-27, 4-(2-(4,4-difluoropiperidin-1-yl)pyrimidin-4-yl)-N-hydroxybenzamide]: the pIC50 on HDAC6 is over 6.00. Further, in assay [2], the “acetylation of α-tubulin (Western blot)” value is listed as “induce acetylation of α-tubulin in SH-SY5Y neuroblastoma cells in a dose-dependent manner”.

Turning to `O=C(NO)c1ccc(-c2ccnc(Nc3ccc(C(=O)N4CCOCC4)c(F)c3)n2)cc1` [Compound I-1, 4-(2-((3-fluoro-4-(morpholine-4-carbonyl)phenyl)amino)pyrimidin-4-yl)-N-hydroxybenzamide], at HDAC6, the pIC50 was over 6.00.

With `O=C1NCC2(CCN(c3nccc(-c4ccc(C(=O)NO)cc4)n3)CC2)O1` [Compound I-26, N-hydroxy-4-(2-(2-oxo-1-oxa-3,8-diazaspiro[4.5]decan-8-yl)pyrimidin-4-yl)benzamide], the pIC50 on HDAC6 is over 6.00. For the same compound, in assay [2], the “acetylation of α-tubulin (Western blot)” value was “induce acetylation of α-tubulin in SH-SY5Y neuroblastoma cells in a dose-dependent manner”.

`CC1CN(CC(=O)Nc2nccc(-c3ccc(C(=O)NO)cc3)n2)CCO1` (centres unmarked) [Compound I-14, N-hydroxy-4-(2-(2-(2-methylmorpholino)acetamido)pyrimidin-4-yl)benzamide]: the negative logarithm of the IC50 (pIC50) at HDAC6 was over 6.00.

As to `O=C(NO)c1ccc(-c2ccnc(N3CCC4(CC3)COC4)n2)cc1` [Compound I-25, 4-(2-(2-oxa-7-azaspiro[3.5]nonan-7-yl)pyrimidin-4-yl)-N-hydroxybenzamide], the pIC50 on HDAC6 was over 6.00. The “acetylation of α-tubulin (Western blot)” value in assay [2] was “induce acetylation of α-tubulin in SH-SY5Y neuroblastoma cells in a dose-dependent manner”.
